Test results reported in patent US20130158075A1, “HETEROCYCLIC COMPOUNDS AS DGAT1 INHIBITORS” (PIRAMAL ENTERPRISES LIMITED, priority 2010, published 2013).

Target: T1, hDGAT1 (Homo sapiens, UniProt O75907)
T1 construct: made in house; host or cells: Sf9 insect cells (baculovirus); microsomal fraction
T1 sequence (O75907 1-488): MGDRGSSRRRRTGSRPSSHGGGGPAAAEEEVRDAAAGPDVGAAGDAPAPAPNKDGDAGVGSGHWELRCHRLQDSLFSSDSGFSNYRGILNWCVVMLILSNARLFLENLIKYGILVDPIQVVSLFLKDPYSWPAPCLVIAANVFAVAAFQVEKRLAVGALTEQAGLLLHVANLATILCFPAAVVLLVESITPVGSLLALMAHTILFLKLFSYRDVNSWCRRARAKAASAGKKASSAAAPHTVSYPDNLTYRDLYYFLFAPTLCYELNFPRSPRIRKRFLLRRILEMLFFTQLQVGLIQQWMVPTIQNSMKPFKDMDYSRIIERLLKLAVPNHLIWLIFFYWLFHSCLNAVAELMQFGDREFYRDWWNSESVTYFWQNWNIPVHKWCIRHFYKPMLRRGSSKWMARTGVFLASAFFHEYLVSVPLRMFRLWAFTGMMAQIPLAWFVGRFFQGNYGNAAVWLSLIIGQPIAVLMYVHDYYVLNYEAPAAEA
Experiment: In-vitro DGAT1 assay with hDGAT1 microsomes from Sf9 cells (14C oleoyl CoA, scintillation counting)
Assay type: biochemical
Settings: for inhibition at 1 µM: read-out: Percentage inhibition of hDGAT1; for Percentage inhibition of hDGAT1: at 1 μM
Experimental: Sf9 cells were grown in T25 flasks containing Graces's Insect media with 10% FBS with antibiotic (100 units/mL penicillin, 100 μg/mL streptomycin sulphate, 0.25 μg/mL Amptotericin B as Fungizone) grown in a 27° C. incubator.
hDGAT10RF expression clone (RZPDo839C09146 in pDEST vector) was obtained from RZPD, German Science Center for Genomes research, Germany. hDGAT1 bacmid DNA was obtained by transformation of the hDGAT1 expression clone into DH10Bac E. coli competent cells. Approximately 1 μg of hDGAT1 bacmid DNA was infected into Sf9 cells with Cellfectin (Invitrogen) reagent. Following infection, Sf9 cells were incubated at 27° C. for 30 min. Five hours after infection, the media was replaced with growth media containing antibiotics (100 units/mL penicillin, 100 μg/mL streptomycin sulphate, 0.25 μg/mL Amptotericin B as Fungizone) and incubated at 27° C. for 72 h. The supernatant containing the virus was centrifuged at 1500×g for 5 min, passed through 0.22 μm filter, and subsequently stored at 4° C. The virus was further amplified three more times by re-infection of Sf9 cells and the viral titer was determined by plaque assay.
Sf9 cells were seeded in spinner flasks on day 0 at a cell density of 1×10^6 and infected on day 1 with hDGAT1 baculovirus at a multiplicity of infection (MOI) of 5 and a cell density of 2×10^6. On day 3 (or 66-72 h), cells were harvested and centrifuged at 2500×g for 10 min. Pellet was resuspended in lysis buffer (100 mM sucrose, 50 mM KCl, 40 mM KH2PO4, 30 mM EDTA, pH 7.2) and passed through 21-gauge needle approximately 10 times. The mixture was centrifuged at 12,000 rpm in a Sigma 12158-H rotor at 4° C. for 30 min. The supernatant was subjected to centrifugation at 35,000 rpm in a Beckman Ti-45 rotor at 4° C. for 1 h. The resultant pellet containing the microsomes wasere resuspended overnight in 1 mL of lysis buffer and total protein concentration was estimated using Bradford Reagent. Microsomes were aliquoted and stored at −80° C.
Frozen aliquots of hDGAT1 containing microsomes were thawed (5-10 mg/mL total protein) on ice and diluted to a working stock of 1 mg/mL with DGAT Assay Buffer (DAB). The DGAT reaction assay was performed by following the procedure described in U.S. Pat. No. 6,607,893 with some modifications that are described below.
1 mL stock solution of DGAT1 substrate mixture contains 5.6 μL of ^14C oleoyl CoA (16.8 nCi) and […] of 1,2-dioleoyl-sn-glycerol (1228.5 μM) 1,2-dioleoyl-sn-glycerol stock (19.5 mM) was prepared by dissolving 25 mg of 1,2-dioleoyl-sn-glycerol (Sigma, US) in 2060 μL of acetone.
The assay was performed in duplicates in a reaction volume of 100 μL.
The reaction was started by the addition of 2.5 μL of 1 mg/mL of microsomes (iv) to the mixture of (i), (ii) and (iii), and incubated at 37° C. for 10 min. The reaction was stopped by the addition of 300 μL of Alkaline Ethanol Stop Solution Mix [AESSM; 12.5% of 100% non-denatured ethanol, 10% deionized water, 2.5% 1N NaOH, 75% stop solution (78.4% isopropanol, 19.6% n-heptane, 2% deionized water)] followed by addition of 600 μL of n-heptane. The mixture was vortexed and the triglycerides formed were extracted into the organic heptane phase. 250 μL of the heptane phase was added into 4 mL scintillation cocktail (66.72% toluene, 33.3% TritonX-100, 0.5% PPO, 0.02% POPOP) and counted on a liquid scintillation counter for 1 min. Data was collected and plotted as a function of concentration in nM versus percentage inhibition of hDGAT1 by the compounds of present invention.

Row | Structure (SMILES) | inhibition at 1 µM | Percentage inhibition of hDGAT1
1 | CC(C)(CC(=O)O)Cc1ncc(-c2ccc(NC(=O)c3ccc(C(C)(C)C)cc3)cc2)s1 [Example 75, 4-(5-(4-(4-tert-Butylbenzamido)phenyl)thiazol-2-yl)-3,3-dimethylbutanoic acid] | > 50% | –
2 | CC(C)(CC(=O)O)Cc1ncc(-c2ccc(NC(=O)c3ccc(-c4ccccc4)cc3)cc2)s1 [Example 77, 4-(5-(4-Biphenyl-4-ylcarboxamidophenyl)thiazol-2-yl)-3,3-dimethylbutanoic acid] | – | ++ (>50 % Inhibition)
3 | CCCCCc1ccc(C(=O)Nc2ccc(-c3cnc(CC(C)(C)CC(=O)O)s3)cc2)cc1 [Example 79, 3,3-Dimethyl-4-(5-(4-(4-pentylbenzamido)phenyl)thiazol-2-yl)butanoic acid] | > 50% | –
4 | CC(C)(CCc1ncc(-c2ccc(NC(=O)Nc3cccc(C(F)(F)F)c3)cc2)s1)C(=O)O [Example 88, 2,2-Dimethyl-4-(5-(4-(3-(3-(trifluoromethyl)phenyl)ureido)phenyl)thiazol-2-yl)butanoic acid] | > 50% | –
5 | CC(C)(CCc1ncc(-c2ccc(NC(=O)Nc3ccccc3Cl)cc2)s1)C(=O)O [Example 90, 4-(5-(4-(3-(2-Chlorophenyl)ureido)phenyl)thiazol-2-yl)-2,2-dimethylbutanoic acid] | > 50% | –
6 | COC(=O)C(C)(C)CCc1ncc(-c2ccc(NC(=O)Nc3ccc(F)cc3)cc2)s1 [Example 96, Methyl 4-(5-(4-(3-(4-fluorophenyl)ureido)phenyl)thiazol-2-yl-2,2-dimethyl butanoate] | – | ++ (>50 % Inhibition)
7 | COc1ccc(NC(=O)Nc2ccc(-c3cnc(CCC(C)(C)C(=O)O)s3)cc2)cc1 [Example 98, 4-(5-(4-(3-(4-Methoxyphenyl)ureido)phenyl)thiazol-2-yl)-2,2-dimethyl butanoic acid] | > 50% | –
8 | CC(C)(CCc1ncc(-c2ccc(NC(=O)c3ccc(C(C)(C)C)cc3)cc2)s1)C(=O)O [Example 106, 4-(5-(4-(4-tert-Butylbenzamido)phenyl)thiazol-2-yl)-2,2-dimethylbutanoic acid] | > 50% | –
9 | CC(C)(CCc1ncc(-c2ccc(NC(=O)c3ccc(-c4ccccc4)cc3)cc2)s1)C(=O)O [Example 108, 4-(5-(4-Biphenyl-4-ylcarboxamidophenyl)thiazol-2-yl)-2,2-dimethylbutanoic acid] | – | ++ (>50 % Inhibition)
10 | CC(C)(Cc1ncc(-c2ccc(NC(=O)Nc3ccc(Cl)cc3Oc3ccccc3)cc2)o1)C(=O)O [Example 124, 3-(5-(4-(3-(4-Chloro-2-phenoxyphenyl)ureido)phenyl)oxazol-2-yl)-2,2-dimethyl propanoic acid] | > 50% | –
11 | CC(C)(Cc1ncc(-c2ccc(NC(=O)c3ccc(-c4ccccc4)cc3)cc2)o1)C(=O)O [Example 128, 3-(5-(4-Biphenyl-4-ylcarboxamidophenyl)oxazol-2-yl)-2,2-dimethylpropanoic acid] | – | + (20-50% Inhibition)
12 | O=C(Nc1ccc(-c2cnc(C3CCC(C(=O)O)CC3)s2)cc1)NC1CCCCC1 (stereo not shown) [Example 142, 4-(5-(4-(3-Cyclohexylureido)phenyl)thiazol-2-yl)cyclohexanecarboxylic acid] | > 50% | –
13 | O=C(Nc1ccc(-c2cnc(C3CCC(C(=O)O)CC3)s2)cc1)Nc1cccc(Cl)c1 (stereo not shown) [Example 144, 4-(5-(4-(3-(3-Chlorophenyl)ureido)phenyl)thiazol-2-yl)cyclohexane carboxylic acid] | > 50% | –

More lines, main results first:

Row | inhibition at 1 µM | Structure (SMILES) | Percentage inhibition of hDGAT1
14 | > 50% | CC(C)(CC(=O)O)Cc1ncc(-c2ccc(NC(=O)Nc3cccc(C(F)(F)F)c3)cc2)s1 [Example 69, 3,3-Dimethyl-4-(5-(4-(3-(3-(trifluoromethyl)phenyl)ureido)phenyl)thiazol-2-yl)butanoic acid] | –
15 | > 50% | CC(C)(CC(=O)O)Cc1ncc(-c2ccc(NC(=O)Nc3ccccc3Cl)cc2)s1 [Example 71, 4-(5-(4-(3-(2-Chlorophenyl)ureido)phenyl)thiazol-2-yl)-3,3-dimethyl butanoic acid] | –
16 | > 50% | CC(C)(CC(=O)O)Cc1ncc(-c2ccc(NC(=O)Nc3ccc(Cl)cc3Oc3ccccc3)cc2)s1 [Example 73, 4-(5-(4-(3-(4-Chloro-2-phenoxyphenyl)ureido)phenyl)thiazol-2-yl)-3,3-dimethyl butanoic acid] | –
17 | 20 to 50% | COc1ccc(S(=O)(=O)Nc2ccc(-c3cnc(CC(C)(C)CC(=O)O)s3)cc2)c(OC)c1 [Example 81, 4-(5-(4-(2,4-Dimethoxyphenylsulfonamido)phenyl)thiazol-2-yl)-3,3-dimethylbutanoic acid] | –
18 | > 50% | CC(C)(CCc1ncc(-c2ccc(NC(=O)Nc3ccc(Cl)cc3Oc3ccccc3)cc2)s1)C(=O)O [Example 92, 4-(5-(4-(3-(4-Chloro-2-phenoxyphenyl)ureido)phenyl)thiazol-2-yl)-2,2-dimethylbutanoic acid] | –
19 | > 50% | CC(C)(CCc1ncc(-c2ccc(NC(=O)NC3CCCCC3)cc2)s1)C(=O)O [Example 94, 4-(5-(4-(3-Cyclohexylureido)phenyl)thiazol-2-yl)-2,2-dimethyl butanoic acid] | –
20 | > 50% | O=C(Nc1ccc(-c2cnc(C3CCC(C(=O)O)CC3)s2)cc1)Nc1cccc(C(F)(F)F)c1 (stereo not shown) [Example 134, 4-(5-(4-(3-(3-(Trifluoromethyl)phenyl)ureido)phenyl)thiazol-2-yl)cyclohexane carboxylic acid] | –
21 | > 50% | Cc1ccc(NC(=O)Nc2ccc(-c3cnc(C4CCC(C(=O)O)CC4)s3)cc2)cc1 (stereo not shown) [Example 136, 4-(5-(4-(3-p-Tolylureido)phenyl)thiazol-2-yl)cyclohexanecarboxylic acid] | –
22 | > 50% | O=C(Nc1ccc(-c2cnc(C3CCC(C(=O)O)CC3)s2)cc1)Nc1ccc(F)cc1F (stereo not shown) [Example 138, 4-(5-(4-(3-(2,4-Difluorophenyl)ureido)phenyl)thiazol-2-yl)cyclohexane carboxylic acid] | –
23 | > 50% | O=C(Nc1ccc(-c2cnc(C3CCC(C(=O)O)CC3)s2)cc1)Nc1ccccc1F (stereo not shown) [Example 140, 4-(5-(4-(3-(2-Fluorophenyl)ureido)phenyl)thiazol-2-yl)cyclohexanecarboxylic acid] | –
24 | > 50% | O=C(Nc1ccc(Cl)cc1)Nc1ccc(-c2cnc(C3CCC(C(=O)O)CC3)s2)cc1 (stereo not shown) [Example 146, 4-(5-(4-(3-(4-Chlorophenyl)ureido)phenyl)thiazol-2-yl)cyclohexane carboxylic acid] | –
25 | > 50% | O=C(Nc1ccc(-c2cnc(C3CCC(C(=O)O)CC3)s2)cc1)Nc1ccc(C(F)(F)F)cc1Cl (stereo not shown) [Example 148, 4-(5-(4-(3-(2-Chloro-4-(trifluoromethyl)phenyl)ureido)phenyl)thiazol-2-yl)cyclohexanecarboxylic acid] | –
